Source: patent publication US9259409B2, “Compositions comprising a prostaglandin for treating neuropsychiatric conditions” (Inceptum Research & Therapeutics, Inc., priority 2011, dated 2016)
“Also recorded” adds a separate entry of the source.

Experiments:
[1] = test system: GSK-3; assay: Distalless (Dll) expression in Drosophila wing imaginal discs as assay of GSK-3 function; type: cell-based; details: for Dll expression in wing imaginal discs: Dll lacZ, vs DMSO
[2] = test system: human oligodendrocyte cell line MO3-13; assay: Immuno-slotblot assay for secreted BDNF, oligodendrocyte conditioned media; type: cell-based; details: 1 μM, 5 μM, 10 μM; oligodendrocytes media; vs non-treated and DMSO
Method: (§1) Human embryonic kidney 293T (HEK293T) cells, U87MG astrocytoma and the human oligodendrocyte cell line MO3-13 were grown in Dubelco Minimal Eagle Media (DMEM) (Invitrogen, Carlsbad, Calif., USA) supplemented with 5% heat inactivated fetal bovine serum. Cells were grown to 70% confluence prior to treatment. HEK293T cells were treated individually with […] latanoprost, unoprostone, bimatoprost, fluprostenol, PGE2, and PGF2α in serum-free DMEM. Cells were exposed to drug for 3 hours at 37° C. in a 5% CO2 incubator. U87MG cells were grown to 70% confluence prior to treatment. […]
(§2) Cell culture media from cells that were not treated or treated with DMSO, 1, 5 or 10 μM latanoprost treated was collected in 15-mL screw cap polypropylene tubes from cell culture dishes. […] The relative amount of BDNF secreted by U87MG astrocytoma and MO3-13 oligodendrocyte cell lines were determined by an immune-slotblot method in which 200 μL of conditioned media was applied in triplicate to nitrocellulose membrane pre-wet in water in a Biodot (SF) ultrafiltration unit (Bio-Rad Laboratories, Mississauga, ON, Canada) under vacuum. […] After washing the membrane as above, the bound secondary antibody was detected by ECL Advance™ Western blot HRP substrate (GE Healthcare) using a ChemiDoc™ MP Imaging System (Bio-Rad Laboratories). The relative amount of BDNF was determined by using ImageLab™ software (BioRad). […]

[3] = test system: GSK-3; assay: Cytoplasmic β-catenin stabilization in HEK293T cells (Western blot); type: cell-based, human; details: 10 μM, vs DMSO-treated cells
Method: Human embryonic kidney 293T (HEK293T) cells, U87MG astrocytoma and the human oligodendrocyte cell line MO3-13 were grown in Dubelco Minimal Eagle Media (DMEM) (Invitrogen, Carlsbad, Calif., USA) supplemented with 5% heat inactivated fetal bovine serum. Cells were grown to 70% confluence prior to treatment. […] Cells were exposed to drug for 3 hours at 37° C. in a 5% CO2 incubator. U87MG cells were grown to 70% confluence prior to treatment. Cells were treated with either DMSO vehicle (NT) or individually with 1, 5 and 10 μM latanoprost in DMEM lacking fetal bovine serum. Cells were exposed to treatments for 6 hours at 37° C. in a 5% CO2 incubator. The human oligodendrocyte cell line MO3-13 was grown and differentiated according to the methods described in McLaurin et al. (McLaurin, J., Trudel, G. C., Shaw, I. T., Antel, J. P., and Cashman, N. R., J. Neurobiol., 26: 283-293, 1995). On the third day of serum starvation, cells were treated with either DMSO vehicle (NT) or individually with 1, 5 and 10 μM latanoprost. Cells were exposed to treatments for 6 hours at 37° C. in a 5% CO2 incubator.
(§3) For detection of CREB and Serine-133 (S133)-phosphorylated CREB, serotonin receptor 5HT2A, TCF/LEF1, BDNF and TNF-total protein extracts were prepared from cell cultures using a sintered glass tissue homogenizer (Wheaton, Millville, N.J., USA) in phosphate-buffered saline (PBS), pH 7.5, 3M urea. For detection of β-catenin, cell cultures were washed with PBS, trypsinized, and pelleted at 1,000 rpm for 4 minutes. The cell pellets were washed and resuspended in cold hypotonic buffer consisting of 10 mM HEPES (pH 7.5), 1.5 mM MgCl2, 10 mM KCl, 0.5 mM DTT, and EDTA-free protease inhibitor (Roche, Laval, QC, Canada) in an ice bath for 5 minutes. The mixture was then homogenized using a dounce homogenizer and the cellular debris was pelleted by centrifugation at 4° C. Cytoplasmic fractions were recovered and used for assaying β-catenin.
(§4) Protein concentrations were determined by the Peterson method (Peterson, Analyt. Biochem., 83: 346-356, 1977). […]

[4] = test system: GSK-3; assay: Glycogen deposition in fat body tissue of third instar larvae; type: cell-based, Drosophila melanogaster; details: 10 and 20 μM; vs vehicle (DMSO)
Method: GSK-3 also functions in glycogen deposition via an independent pathway to that of the Wnt/Wg signaling pathway. GSK-3 functions in the glycogen deposition pathway by phosphorylating and inactivating glycogen synthase, which catalyzes the rate-limiting step of glycogen synthesis. To further confirm that PG and PG derivatives inhibit GSK-3 activity, fat body tissue from third instar Drosophila melanogaster larvae was treated with vehicle (DMSO) or 10 and 20 μM latanoprost and the effects of drug treatment on glycogen accumulation was monitored.

[5] = test system: β-catenin; assay: β-catenin stabilization in the brain of open field test mice (Western blot); type: in vivo, mouse; details: brains after open field test; relative to mice treated with saline; n=3
Method: Following the open field test behavioral analysis of mice, the mice were euthanized and their brains were dissected and bifurcated along the longitudinal fissure. Brain samples from mice treated with vehicle (saline), latanoprost, or lithium were processed for β-catenin stabilization by extraction with hypotonic buffer. The levels of stabilized β-catenin were analyzed by Western blot, and the relative amounts of β-catenin (represented as the mean relative amount of three mice per group) were quantified.

[6] = test system: U87MG astrocytoma; assay: Immuno-slotblot assay for secreted BDNF, astrocytoma conditioned media; type: cell-based, human; details: 1 μM, 5 μM, 10 μM; astrocyte conditioned media; vs non-treated and DMSO
Method: as §1, §2

[7] = test system: U87MG cells; assay: Bipolar disorder biomarkers in glioblastoma U87 cell line (Western blot); type: cell-based, human; details: 1 μM, 5 μM, 10 μM, vs untreated cells
Method: Human embryonic kidney 293T (HEK293T) cells, U87MG astrocytoma and the human oligodendrocyte cell line MO3-13 were grown in Dubelco Minimal Eagle Media (DMEM) (Invitrogen, Carlsbad, Calif., USA) supplemented with 5% heat inactivated fetal bovine serum. Cells were grown to 70% confluence prior to treatment. HEK293T cells were treated individually with […] latanoprost, unoprostone, bimatoprost, fluprostenol, PGE2, and PGF2α in serum-free DMEM. Cells were exposed to drug for 3 hours at 37° C. in a 5% CO2 incubator. U87MG cells were grown to 70% confluence prior to treatment. Cells were treated with either DMSO vehicle (NT) or individually with 1, 5 and 10 μM latanoprost in DMEM lacking fetal bovine serum. Cells were exposed to treatments for 6 hours at 37° C. in a 5% CO2 incubator. The human oligodendrocyte cell line MO3-13 was grown and differentiated according to the methods described in McLaurin et al. (McLaurin, J., Trudel, G. C., Shaw, I. T., Antel, J. P., and Cashman, N. R., J. Neurobiol., 26: 283-293, 1995). On the third day of serum starvation, cells were treated with either DMSO vehicle (NT) or individually with 1, 5 and 10 μM latanoprost. Cells were exposed to treatments for 6 hours at 37° C. in a 5% CO2 incubator.
as §3
Protein concentrations were determined by the Peterson method (Peterson, Analyt. Biochem., 83: 346-356, 1977). Proteins (20 μg/lane) were loaded onto SDS-polyacrylamide gels and separated by electrophoresis. Proteins in gels were transferred onto PVDF membranes and processed for antibody reactions. To detect CREB, S133-phosphorylated CREB, and GAPDH loading controls, antibodies were diluted in 2% ECL Advance™ blocking reagent (GE Healthcare, Mississauga, ON, Canada) and solubilized in PBS-Tween20. Membranes were probed overnight at 4° C. Membranes were washed four times with PBS-Tween20 and labeled for 1 hour at 20° C. with secondary antibodies conjugated to horseradish peroxidase (HRP). The membrane was washed four more times with PBS-Tween20 and HRP activity was developed using Advance™ chemiluminescence (ECL) reagent (GE Healthcare, Mississauga, ON, Canada) according to the manufacturer's instructions. PVDF membranes were exposed to X-ray film.
We next examined the effects of latanoprost treatment (1 μM, 5 μM, and 10 μM) on other bipolar disorder biomarkers in glioblastoma U87 cell line.

[8] = test system: DBA/2J mice; assay: Open field test, amphetamine-stimulated activity mouse model of bipolar disorder; type: in vivo
Method: DBA/2J strain mice (Jackson Laboratories, Bar Harbor, Me., USA) were obtained with an approximate starting age of 8 weeks and an average body weight of 25.9 g. Mice were acclimatized for at least three days prior to study commencement, and animals in poor condition were rejected during the acclimatization period. All mice were housed under identical conditions in animal rooms with HEPA-filtered air at a temperature of 70° F.+/−5° F. and a relative humidity of 50%+/−20%. Animal rooms maintained a minimum of 12 to 15 air changes per hour with a light/dark cycle of 12 hours on and 12 hours off with no twilight. Sterile Bed-O-Cobs® bedding was used and changed a minimum of once per week. […]
At the commencement of the study, sixty (60) mice were randomly divided into six (6) groups of ten (10) animals. […] During this time, distance traveled was automatically recorded using TopScan (Clever Sys, Reston, Va., USA) video tracking software.
The data herein indicate that PG and PG derivatives may be effective in treating neuropsychiatric conditions such as bipolar disorder. Therefore, we evaluated the efficacy of latanoprost in an open field model of bipolar disorder in mice. […]
Total distance traveled for each mouse over a 20-minute session was recorded using TopScan (Clever Sys, Reston, Va., USA) video tracking software. […]

[9] = test system: CREB transcription factor; assay: CREB transcription factor activation (S133 phosphorylation) in HEK293T cells (Western blot); type: cell-based, human; details: 10 μM, vs DMSO-treated cells
Method: Human embryonic kidney 293T (HEK293T) cells, U87MG astrocytoma and the human oligodendrocyte cell line MO3-13 were grown in Dubelco Minimal Eagle Media (DMEM) (Invitrogen, Carlsbad, Calif., USA) supplemented with 5% heat inactivated fetal bovine serum. Cells were grown to 70% confluence prior to treatment. […] Cells were exposed to drug for 3 hours at 37° C. in a 5% CO2 incubator. U87MG cells were grown to 70% confluence prior to treatment. Cells were treated with either DMSO vehicle (NT) or individually with 1, 5 and 10 μM latanoprost in DMEM lacking fetal bovine serum. Cells were exposed to treatments for 6 hours at 37° C. in a 5% CO2 incubator. The human oligodendrocyte cell line MO3-13 was grown and differentiated according to the methods described in McLaurin et al. (McLaurin, J., Trudel, G. C., Shaw, I. T., Antel, J. P., and Cashman, N. R., J. Neurobiol., 26: 283-293, 1995). On the third day of serum starvation, cells were treated with either DMSO vehicle (NT) or individually with 1, 5 and 10 μM latanoprost. Cells were exposed to treatments for 6 hours at 37° C. in a 5% CO2 incubator. […]
as §4

CCCC(CCC)C(=O)O [valproate]
Dll expression in wing imaginal discs ([1]; 1 mM): activation of Dll expression

CC(C)OC(=O)CCC/C=C\C[C@@H]1[C@@H](CC[C@@H](O)CCc2ccccc2)[C@H](O)C[C@@H]1O [latanoprost, propan-2-yl-(Z)-7-[(1R,2R,3R,5S)-3,5-dihydroxy-2-[(3R)-3-hydroxy-5-phenylpentyl]cyclopentyl]-hept-5-enoate]
amount of BDNF secreted [2]: no significant increase
levels of cytoplasmic β-catenin [3]: increased levels of cytoplasmic β-catenin
glycogen accumulation in fat body tissue [4]: increase in glycogen accumulation in a dosage-dependent manner
Dll expression in wing imaginal discs ([1]; 20 μM): increased Dll expression
Dll activation (DLL protein levels in wing pouch) ([1]; increasing doses 1 μM, 5 μM, 10 μM and 20 μM, vs DMSO control vehicle): significant activation of Dll
levels of β-catenin in brain [5]: significantly increased levels of β-catenin
amount of BDNF secreted [6]: increased significantly
levels of BDNF [7]: increased levels
levels of inflammatory cytokine TNF-α [7]: reduced levels
levels of serotonin receptor 5HT2A [7]: increased levels
levels of transcription factor TCF/LEF1 [7]: increased levels
phosphorylation at Ser133 on CREB [7]: increased levels
total level of CREB protein [7]: remaining relatively constant
amphetamine-stimulated locomotion (distance traveled) ([8]; final five minutes of 20-minute open field test, 0.5 mg/kg amphetamine, drug IP 1 hour prior to test, 0.5 mg/kg): significantly reduced; also recorded: significantly (P<0.05) attenuates
activity in saline-treated mice ([8]; no amphetamine, compared among vehicle, latanoprost, lithium): No significant differences
levels of S133 phosphorylated-CREB [9]: increased levels of 5133 phosphorylated-CREB

CCCCC[C@H](O)/C=C/[C@@H]1[C@@H](C/C=C\CCCC(=O)O)[C@@H](O)C[C@H]1O [PGF2α, (Z)-7-[(1R,2R,3R,5S)-3,5-dihydroxy-2-[(E)-(3S)-3-hydroxy-1-octenyl]-cyclopentyl]-5-heptenoic acid]
levels of cytoplasmic β-catenin [3]: increased levels of cytoplasmic β-catenin

CCCCC[C@H](O)/C=C/[C@H]1[C@H](O)CC(=O)[C@@H]1C/C=C\CCCC(=O)O [PGE2, (Z)-7-[(1R,2R,3R)-3-hydroxy-2-[(E)-(3S)-3-hydroxy-1-octenyl]-5-oxo-cyclopentyl]-hept-5-enoic acid]
levels of cytoplasmic β-catenin [3]: increased levels of cytoplasmic β-catenin
